Results: patent US8598342B2, “Methods and compounds for antimicrobial intervention” (President and Fellows of Harvard College, priority 2008, dated 2013)
Entries after “also recorded” stand apart in the source; their conditions may differ.

Key:
[1] = system: S. aureus RN4220 TarG:W73C (m5); assay: MIC analysis of RN4220 carrying the mutant tarG allele TarG:W73C; assay type: cell-based, Staphylococcus aureus; conditions: mutant allele exchanged into RN4220
Text: (§1) Therefore, we conclude that TarG is a target of targocil. […] (Davidson A L, Dassa E, Orelle C, & Chen J (2008) Microbiology and Molecular Biology Reviews 72:317-364) In addition to functioning as antibiotics, inhibitors such as targocil, and derivatives thereof, could be valuable tools for mechanistic and structural analyses of ABC transporters.

S. aureus TarF = target: T1, S. aureus TarF (Staphylococcus aureus, UniProt Q2G1C1); assay: In vitro enzyme inhibition assay, TarF (radiometric); assay type: biochemical; conditions: targocil 50 μg/mL; enzyme 200 nM
T1 construct: made in house
T1 sequence (Q2G1C1 1-389): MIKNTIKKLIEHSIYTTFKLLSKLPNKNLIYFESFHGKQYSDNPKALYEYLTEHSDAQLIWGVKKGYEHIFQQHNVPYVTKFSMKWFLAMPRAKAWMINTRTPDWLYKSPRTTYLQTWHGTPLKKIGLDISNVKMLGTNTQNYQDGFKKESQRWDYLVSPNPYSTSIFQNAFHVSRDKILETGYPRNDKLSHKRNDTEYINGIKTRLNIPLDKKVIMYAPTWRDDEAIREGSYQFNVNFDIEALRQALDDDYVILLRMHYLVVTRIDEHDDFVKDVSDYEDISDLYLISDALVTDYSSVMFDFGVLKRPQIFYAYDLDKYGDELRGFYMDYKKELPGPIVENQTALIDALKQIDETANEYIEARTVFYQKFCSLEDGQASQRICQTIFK
Protocol: (§2) S. aureus TarB, D, F, I, and L were cloned, overexpressed and purified as described previously (S. Brown, Y. H. Zhang, S. Walker, Chemistry & Biology 15, 12, Jan. 2008.) Radiometric in vitro assays were run to test the inhibitory effects of targocil on Tar B, D, F, and L, while TarI was assayed for targocil inhibition using an HPLC assay using conditions similar to those previously reported (ibid). See below for exact reaction conditions. […] In each case, a reaction with no targocil served as a negative control (active enzymatic reaction) and a reaction with heat-treated enzyme served as a positive control (no enzymatic reaction). Targocil was incubated with all reaction components except the substrates at room temperature. After 10 minutes, substrates were added and the reactions were allowed to proceed for 60 minutes. The reactions were quenched with DMF and the products were imaged/monitored as previously described (ibid).
TarF in vitro inhibition assay protocol. Each 3 μL reaction contained 1 μM [14C]-GroP-ManNAc β-(1,4)-GlcNAc-pp-farnesyl, 3 μM [14C]-CDP-glycerol, 20 mM Tris base pH 7.5, 100 mM NaCl, 10 mM MgCl2, 200 nM TarF. The reactions were quenched and imaged as described above for TarB.

S. aureus TarI = target: T2, S. aureus TarI (Staphylococcus aureus, UniProt Q2G1C0); assay: In vitro enzyme inhibition assay, TarI (HPLC); assay type: biochemical; conditions: targocil 50 μg/mL; enzyme 200 nM
T2 construct: made in house
T2 sequence (Q2G1C0 1-238): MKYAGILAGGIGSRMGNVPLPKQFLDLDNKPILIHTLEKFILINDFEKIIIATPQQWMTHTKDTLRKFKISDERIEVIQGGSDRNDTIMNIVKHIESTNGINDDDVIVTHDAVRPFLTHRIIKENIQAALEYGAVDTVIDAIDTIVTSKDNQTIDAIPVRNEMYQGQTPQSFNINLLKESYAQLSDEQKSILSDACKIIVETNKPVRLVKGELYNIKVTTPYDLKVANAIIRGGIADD
Protocol: as §2
TarI in vitro inhibition assay protocol and data. […] The reactions were monitored by HPLC using an anion exchange column, Phenosphere 5μ SAX 250×4.6 mm, 5 μm (Phenomenex), to record the disappearance of the CTP peak and production of a new CDP ribitol peak (Buffer A: 5 mM NH4H2PO4, pH 2.8, Buffer B: 750 mM NH4H2PO4, pH 3.7, isocratic elution 75% B over 20 minutes, UV monitored at 271 nm).

S. aureus RN4220 = assay: Kill curve analysis; assay type: cell-based, Staphylococcus aureus; conditions: 10^6 cfu/mL S. aureus RN4220, 30° C.
Protocol: (§3) (A) Targocil MIC data for a panel of Gram-positive strains, including MRSA clinical isolates B5271 and 5340A. Growth was monitored in triplicate after 12 h at 28° C. using optical density. (B) Two dimensional drug interaction analysis between tunicamycin and targocil grown for 18 h at 30° C. […] At higher concentrations, tunicamycin is toxic because it inhibits cell wall biosynthesis. […] Varying concentrations of drug were added to […] of S. aureus RN4220 after 5 h and cell count was monitored over time at 30° C. […] Cells were grown at 28° C. for 12 h and monitored for growth using optical density (OD600). Data were normalized to the DMSO controls for each strain. (E) Two classes of mutants were examined: phage resistant (m1 3) and phage sensitive (m4-5).

[2] = system: S. aureus strains, including five MRSA strains; assay: In vitro MIC against a panel of S. aureus strains including MRSA; assay type: cell-based, Staphylococcus aureus
Protocol: as §3
(G. Bou, (2007) Methods Mol Biol 391, 29)

[3] = system: strain overexpressing S. aureus TarGH; assay: Growth of S. aureus RN4220 overexpressing S. aureus tarGH; assay type: cell-based, Staphylococcus aureus; conditions: 28° C., 12 h, OD600
Protocol: as §3

[4] = system: S. aureus RN4220 TarG:F82L (m4); assay: MIC analysis of RN4220 carrying the mutant tarG allele TarG:F82L; assay type: cell-based, Staphylococcus aureus; conditions: mutant allele exchanged into RN4220
Text: as §1

[5] = system: IPTG-inducible tarO strain of S. aureus; assay: Growth of the IPTG-inducible tarO strain as a function of targocil concentration; assay type: cell-based, Staphylococcus aureus
Text: (Top) Schematic of the IPTG-inducible tarO operon. […] Data were normalized to the DMSO controls for each strain.

Structure (SMILES): CCN(CC)c1nc2c(S(=O)(=O)c3ccccc3)nnn2c2ccc(Cl)cc12 [7-chloro-N,N-diethyl-3-(phenylsulfonyl)-[1,2,3]triazolo[1,5-a]quinazolin-5-amine]
- resistance to targocil of TarG:W73C strain [1]: fully resistant; also recorded: confer resistance
- inhibition of TarF (S. aureus TarF): None of these enzymes was inhibited
- inhibition of TarI (S. aureus TarI): None of these enzymes was inhibited
- mode of action in kill curve (bacteriostatic or bactericidal) (S. aureus RN4220): bacteriostatic
- effectiveness against strains of S. aureus ([2]; RN4220, RN450, Newman strain, Wood strain): effective against numerous strains of S. aureus
- in vitro MIC values against all tested S. aureus strains ([2]; including five MRSA strains): low μg/mL range
- species selectivity of antibiotic activity ([2]; panel of Gram-positive strains): selective for S. aureus
- resistance to targocil of strain overexpressing S. aureus TarGH [3]: partially resistant; also recorded: partial resistance
- resistance to targocil of TarG:F82L strain [4]: fully resistant; also recorded: confer resistance
- effect on cell growth, tarO not induced ([5]; in the absence of IPTG): no effect
- effect on cell growth, tarO induced ([5]; in the presence of IPTG): inhibited cell growth
